According to patent US11332438B2, “Creatine prodrugs, compositions and methods of use thereof” (Ultragenyx Pharmaceutical Inc., priority 2017, dated 2022):
Counter-ions that a name gives are not always drawn.

Columns and labels:
[1] = Plasma stability, human plasma; assay type: in vitro ADME; conditions: 37 °C, read-out: Plasma Stability Human t1/2
Protocol: (§1) The stabilities of creatine prodrugs can be evaluated in one or more in vitro systems using a variety of preparations following methods known in the art. Experimental conditions useful for the in vitro studies are described in Table 1. Prodrug is added to each preparation in triplicate. […]
(§2) Protocol for plasma stability for early screen macrocycles (Method A):
(§3) Frozen plasma was thawed by placing at 37° C. quickly and centrifuged at 3,000 rpm for 8 minutes to remove clots. Then the supernatant was pipetted and pooled as the plasma to be used in the experiment. The plasma was placed on ice until used. The test compounds and reference compounds spiking solution was prepared as a 2.5 mM test compounds spiking solution A: Add 20 μL of 10 mM test compounds stock solution to 60 μL DMSO. 0.1 mM Spiking solution B was prepared: Add 40 μL of spiking solution A to 960 μL of […] Sodium phosphate buffer with 0.5% BSA. […] For 0-min, 400 μL of ACN containing IS was added to the wells of 0-min plate and then 90 μL of plasma was added. […] 50 μL of the supernatant was transferred from each well into a 96-well sample plate containing 120 μL of ultra pure water (Millipore, ZMQS50F01) and analyzed by LC/MS.
(§4) Protocol for plasma stability (Method B):
(§5) The frozen plasma was thawed in a 37° C. water bath and then, if needed, adjusted to pH=7.4 then preheated in a 37° C. incubator. The test article was dissolved in 10% DMSO/water and spiked into plasma pre-plated into 96 well plates at a final concentration of 1 μM. Discrete incubations were performed at 37° C. and included 5 time points: t=0, 2, 5, 15, and 30 min. Samples were then crashed with 4× volume, ice cold 20% water/80% acetonitrile and spun at 4000 g for 10 mins. The supernatant was dried down and reconstituted with water and analyzed by LC-MS/MS. The half life in minute was calculated.

[2] = Plasma stability, mouse plasma; assay type: in vitro ADME; conditions: 37 °C, read-out: Plasma Stability Mouse t1/2
Protocol: as §1, §2, §3, §4, §5

[3] = tested on: Phenocell CrT deficient neurons (iPSC-derived human neurons); test: Creatine prodrug uptake and d3-creatine release in Phenocell CrT deficient neurons (Table 4B); assay type: cell-based; conditions: 2 hours
Protocol: Human neurons were obtained by differentiation of iPSC-derived neural stem cells for 14 days. The iPSCs were obtained from Phenocell Corporation. Neurons were cultured and differentiated to Day 10 and then frozen in liquid nitrogen. Neurons were thawed and replated at 1×10^6 per well of viable cells on poly-ornithine/laminin coated plates in 2 ml medium per well. Differentiation in complete Neurol medium with 2 ng/ml FGF2 was carried out for 4 additional days with a complete medium change (90% of medium) on Day 12. Activin A (20 ng/ml final conc.) was spiked into the cultures on Day 11 and Day 13. […] In parallel, compounds were incubated in medium alone to assess chemical stability of parent prodrug and metabolites. At the end of the 2 hour incubation, supernatants were collected and frozen at −80 C. Neurons in 6 well plates were washed gently 3× with HBSS and frozen at −80° C. Cell lysates were obtained by addition of 130 μl/well 10 mM Tris pH 7.4 with complete Mini protease inhibitors and scraping of wells. Plates were kept on ice during processing. Lysates were homogenized by hand briefly with a green pestle in 1.5 ml centrifuge tubes and then vortexed at high speed for 5 seconds. Lysates were centrifuged at 13,000 g, 10 minutes, 4 C and supernatants (cytosol fraction) were transferred in a new tube. A crash solution constituted of 80% acetonitrile and 20% water with bucetin, d5-Cr (internal standard) was added at 4:1 volume to volume to 50 ul of all samples for a total volume of 250 μL. Then plate was spun at 4000 rpm, 10 minutes, […] Samples were transferred to a new plate and frozen at −80 C prior to analysis by LC-MS/MS (Table 4B).

[4] = In vivo IV dosing in CrT KO mice: prodrug, d3-Cr and d3-Crn in brain (Table 5); conditions: for AUClast prodrug in the brain: BQL prodrug = 41.2 ng/mL
Protocol: A creatine prodrug is administered as an intravenous bolus injection to groups of three to six adult male CD1 mice at an appropriate creatine prodrug dose equivalent per kg body weight. Animals are conscious at the time of the experiment. Blood samples (0.3 mL) are obtained via a jugular vein cannula at intervals over 8 hours following IV dosing. Blood is processed into plasma, then the plasmais immediately frozen at −80° C. until analyzed by LC-MS/MS. Samples may also be taken form the CSF or other appropriate biological fluid. Brains were collected and flash frozen immediately in liquid nitrogen. Brains were homogenized in 100 mM KPI buffer with a cocktail of anti-proteases on the same day as the sample preparation required for LC-MS/MS analysis.
Several prodrugs with either free COOH group and ester linkage and macrocycles were selected for IV dosing in animal study to assess PK and d3-Cr release in brain in vivo. Prodrugs were IV dosed in CrT KO mice at 10, 15, or 25 mg/kg in animal studies. Mouse brain homogenates (MBH) were prepared from brains collected from mice after dosing. Levels of prodrug, d3-Cr and d3-Crn were quantified in brain and expressed in brain concentration (for macrocycle prodrugs) or AUC (for linear prodrugs) over time. Very few prodrugs were detected in MBH.

[5] = Liver microsome stability, human; assay type: in vitro ADME; conditions: liver microsomes, read-out: Microsome Stability Human t1/2
Protocol: as §1
(§6) Protocol for Microsomal Stability:
(§7) For reference compound, a 500 μM spiking solution was prepared: add 10 μL of 10 mM DMSO stock solution into 190 μL ACN. […] For test compound, a 5 mM spiking solution was prepared: add 10 μL of 10 mM DMSO stock solution into 10 μL ACN. […] NADPH stock solution (6 mM) was prepared by dissolving NADPH into buffer 0.1 M Potassium Phosphate buffer, 1.0 mM EDTA, pH 7.4. […] For 0-min, 135 μL of ACN containing IS was added to the wells of 0-min plate and then 15 μL of NADPH stock solution (6 mM) was added. 15 μL of NADPH stock solution (6 mM) was added to the samples designated as 0-, 5-, 10-, 20-, 30-min, 60-min; 15 μL of buffer 0.1 M Potassium Phosphate buffer, 1.0 mM EDTA, pH 7.4, was added to the samples designated as 60-min without NADPH. At 5-min, 10-min, 20-min, and 30-min, 60-min 135 μL of ACN containing IS was added to the wells of corresponding plates, respectively, to stop the reaction. […] 50 μL of the supernatant from each well was transferred into a 96-well sample plate containing 50 μL of ultra pure water (Millipore, ZMQS50FOI) and analyzed by LC/MS.

[6] = Liver microsome stability, mouse; assay type: in vitro ADME; conditions: liver microsomes, read-out: Microsome Stability Mouse t1/2
Protocol: as §1, §6, §7

[7] = Chemical stability in phosphate buffered saline (PBS); assay type: physicochemical; conditions: 50 μM prodrug
In short: (§8)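 Incubations used 50 μM compound at 37 °C in phosphate buffered saline, fasted simulated intestinal fluid without pancreatin, or fasted simulated gastric fluid without pepsin.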

[8] = Chemical stability in simulated gastric fluid (SGF) without pepsin; assay type: physicochemical; conditions: 50 μM prodrug
In short: as §8

[9] = Prodrug cleavage in human brain homogenates (HBH): d3-Cr release and d3-Crn cyclization; assay type: in vitro ADME; conditions: 200 μM prodrug, 3 h, % of nominal input
Protocol: For assessment of the ability of prodrugs to release creatine, and to release creatine preferentially to unwanted cyclization to creatinine, d3-labeled (deuterium labeled methyl group) prodrugs are incubated with brain homogenates (e.g., mouse, human) specially prepared to preserve FAAH activity or with rFAAH for direct cleavage study. The use of d3-labelled prodrugs is essential in order to distinguish prodrug-derived creatine (d3-creatine) from high concentrations of endogenous (non-labeled) creatine. […] Prodrugs are tested at final concentrations of 20 μM and 200 μM. Approximately 3-4 mg of homogenate is used for each reaction. Co-factor (NADPH) is included at a final concentration of 1 mM. FAAH activity is confirmed by conversion of 7-amino-4-methyl Coumarin-Arachidonamide to 7-amino-4-methyl Coumarin by fluorescent assay. Negative controls include incubations without brain homogenate/rFAAH (but with NADPH) or 65° C. heat inactivated brain homogenate/rFAAH to assess non-enzymatic prodrug cleavage under the conditions of the assay and FAAH inhibitor […] at the concentration of 1 μM. Prodrug incubations are prepared by addition of 8 μL of prodrug stock solution (500 or 5000 μM in DMSO or DMSO/methanol) to assay buffered, followed by addition of brain homogenate/rFAAH. […] The samples are centrifuged at 15890×g for 10 minutes at 4° C., followed by transfer of the supernatants for storage at −20° C. pending LC-MS/MS analysis. Sample supernatants are analyzed by LC-MS/MS for determination of d3-prodrug, d3-creatine and d3-creatinine levels.
Deuterated creatine prodrugs were tested in 3 different in vitro assays to assess d3-creatine (d3-Cr) release and cyclization to form d3-creatinine (d3-Crn). These assays were 1) direct cleavage with recombinant human FAAH enzyme (rFAAH), 2) cleavage in mouse brain homogenates (MBH), and 3) human brain homogenates (HBH).
Creatine prodrug cleavage efficiency was determined by percentage of net d3-Cr release in μM (positive reaction subtracted from negative control of no brain homogenate/rFAAH or inactivated brain homogenate/rFAAH) over nominal input concentration of 200 μM prodrug at 3 h. Propensity for creatinine cyclization was determined by percentage of d3-Crn generated in μM in positive reaction over nominal input concentration of 200 μM prodrug at 3 h.

[10] = IV 10 mg/kg, CrT KO mouse brain

Compound: [2H]C([2H])([2H])N1CC(=O)O[C@H](C)CCCCCCCCCC(=O)NC1=N [Compound Q, (R)-5-imino-4,17-dimethyl-1-oxa-4,6-diazacycloheptadecane-2,7-dione Hydrochloride]
- half-life ([1]; Table 2C, macrocycles): 10 min
- half-life ([2]; Table 2C, macrocycles): 1.3 min
- Prodrug concentration in the cell cytosol ([3]; Study No. 2, 100 μM): BLOQ
- Prodrug concentration in the cell cytosol ([3]; Study No. 2, 500 μM): BLOQ

Compound: [2H]C([2H])([2H])N(CC(=O)OC(C)C)C(=N)NC(=O)CCCCCCCCCC [Compound 12]
- AUClast prodrug in the brain [4, 10]: BQL

Compound: [2H]C([2H])([2H])N(CC(=O)OC(C)C)C(=N)NC(=O)CCCCCCCCCCCC [Compound 10]
- AUClast prodrug in the brain [4, 10]: BQL

Compound: [2H]C([2H])([2H])N(CC(=O)O)C(=N)NC(=O)CCCCCCCCCCO [Compound 54]
- half-life ([1]; Table 2B): > 180 min
- half-life ([2]; Table 2B): > 180 min
- half-life at 10 μM ([5]; pH 7.4, Table 2B): > 90 min
- half-life at 10 μM ([6]; pH 7.4, Table 2B): > 90 min
- Chemical Stability PBS % T0 at 2 hours at 37 °C. ([7]; Table 2B): 103%
- Chemical Stability SGF, no enzyme % T0 at 2 hours at 37 °C. ([8]; Table 2B): 102%
- Prodrug concentration in the cell cytosol ([3]; Study No. 1, 10 μM): BLOQ
- d3-Creatine concentration in the cell cytosol ([3]; Study No. 1, 10 μM): BLOQ
- d3-Creatinine concentration in the cell cytosol ([3]; Study No. 1, 10 μM): BLOQ
- Prodrug concentration in the cell cytosol ([3]; Study No. 1, 50 μM): BLOQ
- d3-Creatine concentration in the cell cytosol ([3]; Study No. 1, 50 μM): BLOQ
- d3-Creatinine concentration in the cell cytosol ([3]; Study No. 1, 50 μM): BLOQ

Compound: [2H]C([2H])([2H])N1CC(=O)OC(C)(C)CCCCCCCCCC(=O)NC1=N [Compound U, 5-imino-4-trideuteriomethyl-17,17-dimethyl-1-oxa-4,6-diazacycloheptadecane-2,7-dione]
- half-life ([1]; Table 2C, macrocycles): 72 min
- half-life ([2]; Table 2C, macrocycles): 70 min
- Prodrug concentration in the cell cytosol ([3]; Study No. 3, 50 μM): 0.48 nmoles/mg protein
- d3-Creatine concentration in the cell cytosol ([3]; Study No. 3, 50 μM): BLOQ

Compound: [2H]C([2H])([2H])N(CC(=O)[O-])C(=N)NC(=O)CCCCCC.[Na+] [Compound 13]
- half-life ([1]; Table 2A): > 180 min
- half-life ([2]; Table 2A): > 180 min
- half-life at 10 μM ([5]; pH 7.4, Table 2A): 647 min
- half-life at 10 μM ([6]; pH 7.4, Table 2A): 912 min
- Chemical Stability PBS % T0 at 2 hours at 37 °C. ([7]; Table 2A): 97%
- Chemical Stability SGF, no enzyme % T0 at 2 hours at 37 °C. ([8]; Table 2A): 94%
- crossing of BBB (in words) ([4]; CrT KO mice, IV dosing): did not seem to cross BBB
- AUClast d3-Cr in the brain ([4]; IV 10 mg/kg, CrT KO mouse brain, BQL d3-Cr = 13.7 ng/mL): BQL
- AUClast d3-Crn in the brain ([4]; IV 10 mg/kg, CrT KO mouse brain, BQL d3-Crn = 1.5 ng/mL): BQL
- AUClast prodrug in the brain [4, 10]: BQL

Compound: Cl.[2H]C([2H])([2H])N(CC(=O)OCC(C)(C)C)C(=N)NC(=O)CCCCCCCCCC [Compound 39]
- Chemical Stability PBS % T0 at 2 hours at 37 °C. ([7]; Table 2A): 62%
- Chemical Stability SGF, no enzyme % T0 at 2 hours at 37 °C. ([8]; Table 2A): 103%
- Prodrug Cleavage Human BH d3-Crn release [9]: 166.5%
- Prodrug Cleavage Human BH net d3-Cr release ([9]; negative control subtracted): 6.4%
